Source: patent publication US4645772A, “Levorotatory enantiomers of derivatives of 5,6,13,13a-tetrahydro-8H-dibenzo [A,G]quinolizine, preparative process, pharmaceutical compositions containing them and application” (Urpha, priority 1982, dated 1987)
Entries after “also recorded” stand apart in the source; their conditions may differ. Like-named read-outs stand apart in the source and are kept apart here.

What was measured:
α2 adrenergic receptors = target: T1, α2 adrenergic receptors (Rattus norvegicus, UniProt P22909); assay: Binding to α2 adrenergic receptors (3H-yohimbin), rat cerebral cortex homogenate; details: for Ki: SPECIFIC BINDING, Kl, α 2, 3H-yohimbin, average of three assays
T1 construct: from tissue; host or cells: rat cerebral cortex homogenate
T1 sequence (P22909 1-465): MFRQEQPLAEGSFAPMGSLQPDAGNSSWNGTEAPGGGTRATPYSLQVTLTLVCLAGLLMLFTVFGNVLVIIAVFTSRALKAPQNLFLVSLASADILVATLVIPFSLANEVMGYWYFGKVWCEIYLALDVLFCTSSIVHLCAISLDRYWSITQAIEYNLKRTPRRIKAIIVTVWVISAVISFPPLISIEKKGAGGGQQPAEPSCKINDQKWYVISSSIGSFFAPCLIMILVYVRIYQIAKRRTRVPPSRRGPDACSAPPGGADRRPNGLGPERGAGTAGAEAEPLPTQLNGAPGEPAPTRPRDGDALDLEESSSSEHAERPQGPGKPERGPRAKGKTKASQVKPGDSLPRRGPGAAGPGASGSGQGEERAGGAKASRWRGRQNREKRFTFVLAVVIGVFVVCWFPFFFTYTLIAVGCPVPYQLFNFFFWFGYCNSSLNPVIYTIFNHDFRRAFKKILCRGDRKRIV
Method: (§1) The tests were carried out on rat cerebral cortex homogenate, according to the method described by P. Greengross and R. Bremmerclaus, Eur. J. Pharmacol. (1979) 55 323-326.
(§2) The results represent the average of the three assays. The Ki values were calculated according to Cheng and Prussoff (Biochem. Parmacol. 1973 22 3099-3108).

α1 adrenergic receptors = assay: Binding to α1 adrenergic receptors (3H-prazosin), rat cerebral cortex homogenate; details: for affinity for the α1 receptor with respect to the α2 receptor: in words, comparison of α1 and α2 binding; for Ki: read-out: SPECIFIC BINDING, Kl, α 1, 3H-prazosin, average of three assays
Method: as §1, §2

[1] = cat; cited from earlier work
[2] = dog; cited from earlier work
normotensive rat = assay: Hypotensive activity in the anesthetized normotensive rat; format: in vivo; details: for effect on blood pressure: 15 minutes after i.v. administration
Method: The study was carried out in the normotensive rat anesthetized with pentothal (40 mg.kg^-1 i.p.). The blood pressure was measured with a catheter placed in the carotid artery and linked to a pressure cell (Statham p 23 DB) and to a recorder according to the method described by Waeldele and Stoclet (J. Pharmacol. Paris 1973, 66, 357-366). The derivatives were administered in increasing doses every 15 minutes by intravenous injection (i.v.).
Each point is the average of the values obtained in n aminals ±standard error.
In FIG. 1 the abscissae show the quantities administered of the compound to be tested, and the ordinates show the average blood pressure ΔP mm Hg.

[3] = target: T2, α-adrenergic receptor / phenylephrine contraction of isolated rat aorta (Rattus norvegicus, UniProt P23944); assay: Antagonism of phenylephrine on the isolated rat aorta (α-blocking activity, Schild analysis); details: for type of antagonism against phenylephrine / affinity for the adrenergic receptor: isolated rat aorta; for r (correlation coefficient of the straight line): Schild's straight line; for r (correlation coefficient of the straight line) / n (slope of Schild's straight line) / Kb: against phenylephrine; for Kb: Schild's relation, read-out: pA2 (converted); for affinity for the adrenergic receptor: in words
T2 construct: phenylephrine on the isolated rat aorta; from tissue; host or cells: isolated rat aorta
T2 sequence (P23944 1-561): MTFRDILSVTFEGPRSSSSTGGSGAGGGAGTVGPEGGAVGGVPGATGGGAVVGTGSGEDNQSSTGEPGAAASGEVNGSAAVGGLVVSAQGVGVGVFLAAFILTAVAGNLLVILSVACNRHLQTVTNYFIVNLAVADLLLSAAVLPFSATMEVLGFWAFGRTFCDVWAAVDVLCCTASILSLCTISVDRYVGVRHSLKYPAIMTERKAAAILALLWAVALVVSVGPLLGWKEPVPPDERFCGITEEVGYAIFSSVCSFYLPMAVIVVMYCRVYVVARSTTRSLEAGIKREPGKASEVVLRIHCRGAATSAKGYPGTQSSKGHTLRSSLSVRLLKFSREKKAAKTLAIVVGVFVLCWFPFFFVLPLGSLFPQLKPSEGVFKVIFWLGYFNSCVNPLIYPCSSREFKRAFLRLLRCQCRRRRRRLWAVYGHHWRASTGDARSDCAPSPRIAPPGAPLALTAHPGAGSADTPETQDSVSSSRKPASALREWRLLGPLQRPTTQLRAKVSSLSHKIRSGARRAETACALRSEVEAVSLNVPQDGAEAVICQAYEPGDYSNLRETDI
From the text: (2) Study of α-blocking activity: study of the antagonism between the derivatives of Berbine and phenylephrine on the isolated rat aorta
The quantitative evaluation of the antagonism between the derivatives to be tested and phenylephrine was made by analysis to effect-concentration relationships in the presence and absence of antagonist and the PA2 values calculated with Schild's relation (Arunlasksha na O. and Schild H. P., Br. J. Pharmacol., 1959, 14, 48-58). […] In FIG. 2 the E effect (% of maximum contraction) in the absence and presence of STB 6 (-) is given in the ordinate, and the abscissa gives the log of the phenylephrine concentration. The different curves relate to the following concentrations:
FIG. 2b is the Schild representation (x being the ratio of phenylephrine concentrations which gives a 50% response in the presence and in the absence of STB 6 (-)). On the ordinate are Log (x-1) and on the abscissa Log [(-) STB 6].
The parameters of Schild's relation were also measured in the presence of STB 52 (-) in the same experimental conditions as for STB 6 (-).

[4] = system: mesenteric territory, electrical stimulation of the sympathetic nerves; assay: Inhibition of sympathetic excitation in vivo: vasoconstriction of perfused mesenteric territory by electrical stimulation of sympathetic nerves; details: i.v. 0.5 mg.kg^-1; 7 Hz; rat
Method: (§3) This study was made for the most hypotensive derivative, STB 6. The vascular reactivity of the mesenteric territory perfused in situ in the rat was measured (according to Jackson and Campbell, Eur. J. Pharmacol., 1980, 66, 217-224). After anesthetizing of the rat with pentothal (40 mg.kg^-1 i.p.) the mesenteric territory was perfused at constant flow from a catheter diverting the blood stream of the abdominal aorta. The vasoconstrictor activity resulting from periarterial electrical excitation of the sympathetic nerves (7 Hz) and […] was measured. The activities of the Berbine derivatives administered intravenously were determined for the two types of pressure response. The results obtained are shown in FIGS. 4a and 4b in which the average blood pressure ΔP mm Hg is plotted on the ordinates and time plotted on the abscissae, the injection of the product to be tested or of the placebo (constituted by the same volume of physiological serum) being at time 0.
(§4) FIG. 4a relates to the vasoconstriction caused by electrical stimulation and FIG. 4b to that caused by noradrenalin.

[5] = system: mesenteric territory, noradrenalin; assay: Vasoconstriction of perfused mesenteric territory caused by noradrenalin; format: in vivo; details: i.v. 0.5 mg.kg^-1; noradrenalin 200 ng; rat
Method: as §3, §4

[6] = Toxicity in the mouse (LD50); details: in vivo, male mice
Method: The LD50 was determined in the mouse. The derivatives to be tested were administered in aqueous solution containing 7% dimethylformamide, by esophageal forced feeding of 0.4 ml per 20 g of body weight, to male mice weighing 20 to 25 g.

[7] = system: hypertensive effects of adrenalin; details: dog; cited from earlier work
hypertensive patients = details: cited from earlier work

## c1ccc2c(c1)CC1c3ccccc3CCN1C2 (single isomer, unassigned) [Berbine (+), 5,6,13,13a-tetrahydro-8H-dibenzo[a,g]quinolizine]
α2 adrenergic receptors
  Ki: 569 ± 137 nM
α1 adrenergic receptors
  affinity for the α1 receptor with respect to the α2 receptor: comparable affinities for the α1 and α2 receptors
α1 adrenergic receptors; rat cerebral cortex homogenate
  Ki: 4730 ± 538 nM

## c1ccc2c(c1)CC1c3ccccc3CCN1C2 (single isomer, unassigned) [Berbine (-), 5,6,13,13a-tetrahydro-8H-dibenzo[a,g]quinolizine]
[1]
  sympatholytic activity: strong sympatholytic activity
[2]
  sympatholytic activity: strong sympatholytic activity
α2 adrenergic receptors
  Ki: 140 ± 44 nM
α1 adrenergic receptors
  affinity for the α1 receptor with respect to the α2 receptor: comparable affinities for the α1 and α2 receptors
α1 adrenergic receptors; rat cerebral cortex homogenate
  Ki: 212 ± 26 nM

## Oc1ccc2c(c1)CCN1Cc3ccccc3CC21 (single isomer, unassigned; (+)) [(+) STB 4, 3-hydroxy-5,6,13,13a-tetrahydro-8H-dibenzo-[a,g]-quinolizine]
Normotensive rat
  effect on blood pressure: do not induce a significant decrease in blood pressure
α2 adrenergic receptors
  Ki: 321 ± 72 nM
α1 adrenergic receptors; rat cerebral cortex homogenate
  Ki: 1220 ± 175 nM

## COc1cc2c(cc1OC)CN1CCc3cc(O)ccc3C1C2 (single isomer, unassigned; (+)) [(+) STB 6, 10,11-dimethoxy-3-hydroxy-5,6,13,13a-tetrahydro-8H-dibenzo-[a,g]-quinolizine]
[3]
  type of antagonism against phenylephrine: non-competitive antagonism against phenylephrine; also recorded: non-competitive antagonist of phenylephrine
Normotensive rat
  effect on blood pressure: do not induce a significant decrease in blood pressure
[4]
  effect on vasoconstriction / pressure response caused by electrical stimulation of the sympathetic nerves: does not have a significant activity; also recorded: devoid of this activity at the same doses
α2 adrenergic receptors
  Ki: 901 ± 299 nM
α1 adrenergic receptors; rat cerebral cortex homogenate
  Ki: 2930 ± 363 nM

## Oc1ccc2c(c1)CCN1Cc3ccccc3CC21 (single isomer, unassigned; (-)) [(-) STB 4, 3-hydroxy-5,6,13,13a-tetrahydro-8H-dibenzo-[a,g]-quinolizine]
Normotensive rat
  effect on blood pressure: significant drop in blood pressure
Normotensive rat; i.v.
  dose at which active on blood pressure: 1 mg/kg
α2 adrenergic receptors
  Ki: 307 ± 118 nM
α1 adrenergic receptors; rat cerebral cortex homogenate
  Ki: 462 ± 10 nM

## COc1cc2c(cc1OC)CN1CCc3cc(O)ccc3C1C2 (single isomer, unassigned; (-)) [(-) STB 6, 10,11-dimethoxy-3-hydroxy-5,6,13,13a-tetrahydro-8H-dibenzo-[a,g]-quinolizine]
[3]
  r (correlation coefficient of the straight line): 0.99
  n (slope of Schild's straight line): 0.93
  Kb: 39.8 nM
  type of antagonism against phenylephrine: competitive
  affinity for the adrenergic receptor: strong affinity for the adrenergic receptor
Normotensive rat
  effect on blood pressure: significant drop in blood pressure
Normotensive rat; i.v.
  dose at which active on blood pressure: 1 mg/kg
  hypotensive activity, rank among the derivatives studied: the most hypotensive of the derivatives studied
[4]
  effect on vasoconstriction / pressure response caused by electrical stimulation of the sympathetic nerves: decreases the vasoconstriction of the mesenteric territory caused by the electrical stimulation of the sympathetic nerves; also recorded: reduces the pressure response to sympathetic excitation
[5]
  effect on pressure response due to noradrenalin injection: without modifying the pressure response due to noradrenalin injection
α2 adrenergic receptors
  Ki: 1020 ± 335 nM
α1 adrenergic receptors
  affinity for the α1 receptor with respect to the α2 receptor: strong affinity for the α1 receptor, with respect to that for the α2 receptor
α1 adrenergic receptors; rat cerebral cortex homogenate
  Ki: 419 ± 132 nM

## COc1cc2c(cc1OC)CN1CCc3cc(OC(=O)Cc4ccccc4)ccc3C1C2 (single isomer, unassigned; (-)) [(-) STB 52, 10,11-dimethoxy-3-phenacetyloxy-5,6,13,13a-tetrahydro-8H-dibenzo-[a,g]-quinolizine]
[3]
  r (correlation coefficient of the straight line): 0.99
  n (slope of Schild's straight line): 1.00
  Kb: 100 nM
  type of antagonism against phenylephrine: as competitive an antagonist of phenylephrine as (-) STB 6
  affinity for the adrenergic receptor: strong affinity for the adrenergic receptor
[6]; oral (esophageal forced feeding), 7% dimethylformamide in water
  LD50: > 800 mg/kg
[6]; oral, 800 mg.kg^-1 (limit of solubility)
  mortality: 30%

## COc1cc2nc(N3CCN(C(=O)c4ccco4)CC3)nc(N)c2cc1OC [3H-prazosin, ^3 H-prazosin]
α1 adrenergic receptors; radioligand, rat cerebral cortex homogenate
  maximum binding, α1 receptors: 200±21 fmoles.mg protein^-1

## c1ccc2c(c1)CC1c3ccccc3CCN1C2 (stereo not shown) [Berbine, 5,6,13,13a-tetrahydro-8H-dibenzo[a,g]quinolizine]
[7]
  effect on hypertensive effects of adrenalin: reverses the hypertensive effects of adrenalin
Hypertensive patients
  hypotensive activity: hypotensive activity

## COC(=O)[C@@H]1[C@H]2C[C@H]3c4[nH]c5ccccc5c4CCN3C[C@@H]2CC[C@@H]1O [Yohimbin]
α1 adrenergic receptors; rat cerebral cortex homogenate
  Ki: 322 ± 26 nM

## ^3 H-yohimbin [3H-yohimbin, reference compound]
α2 adrenergic receptors; radioligand
  maximum binding, α2 receptors: 172.5±49.9 fmoles.mg protein^-1
α2 adrenergic receptors; read-out: KD of ligand, α2 receptors
  Kd: 10.2 nM
